Measurements: ChEMBL document CHEMBL1140446, “Designed multiple ligands. An emerging drug discovery paradigm” (J Med Chem, 2005)

Experiments:
Endothelin-1 receptor = target: T1, Endothelin-1 receptor (Homo sapiens, UniProt P25101); experiment: Inhibitory concentration against endothelin receptor type A
T1 sequence (P25101 whole entry): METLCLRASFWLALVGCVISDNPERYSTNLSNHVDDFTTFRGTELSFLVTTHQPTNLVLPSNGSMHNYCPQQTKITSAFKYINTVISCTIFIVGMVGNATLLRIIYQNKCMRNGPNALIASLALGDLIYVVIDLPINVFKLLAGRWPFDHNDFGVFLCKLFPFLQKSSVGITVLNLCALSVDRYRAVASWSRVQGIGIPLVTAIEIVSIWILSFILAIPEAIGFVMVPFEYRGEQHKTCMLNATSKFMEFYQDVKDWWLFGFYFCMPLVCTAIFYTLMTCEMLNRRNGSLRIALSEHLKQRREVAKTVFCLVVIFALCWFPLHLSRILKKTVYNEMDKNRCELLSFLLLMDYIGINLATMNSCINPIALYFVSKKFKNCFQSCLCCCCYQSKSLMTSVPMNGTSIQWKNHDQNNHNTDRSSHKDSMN

[1] = target: T2, Type-1 angiotensin II receptor (Homo sapiens, UniProt P30556)
T2 sequence (P30556 whole entry): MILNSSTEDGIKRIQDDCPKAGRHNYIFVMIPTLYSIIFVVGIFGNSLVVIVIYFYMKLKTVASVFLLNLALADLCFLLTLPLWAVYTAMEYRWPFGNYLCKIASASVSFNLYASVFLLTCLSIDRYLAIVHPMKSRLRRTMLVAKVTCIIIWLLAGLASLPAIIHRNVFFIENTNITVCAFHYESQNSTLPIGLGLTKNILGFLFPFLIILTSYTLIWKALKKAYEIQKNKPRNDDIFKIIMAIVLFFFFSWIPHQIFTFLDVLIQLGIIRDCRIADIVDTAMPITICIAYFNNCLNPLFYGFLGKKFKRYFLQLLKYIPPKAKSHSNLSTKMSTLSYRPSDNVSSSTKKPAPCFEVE
Description: Inhibitory concentration against angiotensin II receptor, type 1

[2] = target: T3, Type-2 angiotensin II receptor (Homo sapiens, UniProt P50052)
T3 sequence (P50052 whole entry): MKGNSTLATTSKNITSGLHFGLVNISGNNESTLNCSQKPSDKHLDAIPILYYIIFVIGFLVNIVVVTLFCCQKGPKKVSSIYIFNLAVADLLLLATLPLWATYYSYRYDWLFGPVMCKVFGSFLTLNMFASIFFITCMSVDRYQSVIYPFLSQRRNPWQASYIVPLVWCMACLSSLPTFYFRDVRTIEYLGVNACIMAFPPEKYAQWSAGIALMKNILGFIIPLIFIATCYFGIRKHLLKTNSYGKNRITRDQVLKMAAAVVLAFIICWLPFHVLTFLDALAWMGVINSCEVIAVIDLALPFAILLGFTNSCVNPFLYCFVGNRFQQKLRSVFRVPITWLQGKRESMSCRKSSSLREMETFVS
Description: Inhibitory concentration against angiotensin II receptor, type 2

[3] = target: Endothelin receptor type B (Homo sapiens, UniProt P24530)
Chain of Endothelin receptor type B (P24530 whole entry): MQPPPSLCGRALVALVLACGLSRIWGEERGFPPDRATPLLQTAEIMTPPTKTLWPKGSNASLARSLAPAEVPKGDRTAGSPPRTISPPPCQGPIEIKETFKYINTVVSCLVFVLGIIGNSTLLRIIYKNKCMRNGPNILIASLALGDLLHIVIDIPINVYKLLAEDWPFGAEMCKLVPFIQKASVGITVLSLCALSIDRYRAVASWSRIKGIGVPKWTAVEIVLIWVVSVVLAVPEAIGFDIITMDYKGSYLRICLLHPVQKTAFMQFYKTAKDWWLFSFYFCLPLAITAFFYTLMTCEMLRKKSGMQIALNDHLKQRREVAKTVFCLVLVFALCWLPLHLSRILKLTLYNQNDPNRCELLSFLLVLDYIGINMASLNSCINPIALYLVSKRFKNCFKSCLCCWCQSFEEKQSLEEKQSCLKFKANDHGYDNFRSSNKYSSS
Description: Inhibitory concentration against endothelin receptor type B

CCCc1cc(Cn2c(CC)nc3c(C)cc(C)nc32)ccc1OC(C(=O)NS(=O)(=O)c1ccc(C(C)C)cc1)c1ccc2c(c1)OCC2 (centres undefined)
IC50 (Endothelin-1 receptor): 24 nM | IC50 [1]: 13 nM | IC50 [2]: 32 nM | IC50 [3]: 60 nM
